These results are taken from paper PMC4929936, “Isoform-specific modulation of the chemical sensitivity of conserved TRPA1 channel in the major honeybee ectoparasitic mite, Tropilaelaps mercedesae” (Open Biology, 2016).

The target of assay [1] is T1, TmTRPA1b (Tropilaelaps mercedesae, UniProt A0A193PK79).
T1 construct: gene TRPA1; full-length, untagged, transiently expressed in HEK293 cells; expected 143 kD; 15 ankyrin repeats
T1 sequence (A0A193PK79 1-1258): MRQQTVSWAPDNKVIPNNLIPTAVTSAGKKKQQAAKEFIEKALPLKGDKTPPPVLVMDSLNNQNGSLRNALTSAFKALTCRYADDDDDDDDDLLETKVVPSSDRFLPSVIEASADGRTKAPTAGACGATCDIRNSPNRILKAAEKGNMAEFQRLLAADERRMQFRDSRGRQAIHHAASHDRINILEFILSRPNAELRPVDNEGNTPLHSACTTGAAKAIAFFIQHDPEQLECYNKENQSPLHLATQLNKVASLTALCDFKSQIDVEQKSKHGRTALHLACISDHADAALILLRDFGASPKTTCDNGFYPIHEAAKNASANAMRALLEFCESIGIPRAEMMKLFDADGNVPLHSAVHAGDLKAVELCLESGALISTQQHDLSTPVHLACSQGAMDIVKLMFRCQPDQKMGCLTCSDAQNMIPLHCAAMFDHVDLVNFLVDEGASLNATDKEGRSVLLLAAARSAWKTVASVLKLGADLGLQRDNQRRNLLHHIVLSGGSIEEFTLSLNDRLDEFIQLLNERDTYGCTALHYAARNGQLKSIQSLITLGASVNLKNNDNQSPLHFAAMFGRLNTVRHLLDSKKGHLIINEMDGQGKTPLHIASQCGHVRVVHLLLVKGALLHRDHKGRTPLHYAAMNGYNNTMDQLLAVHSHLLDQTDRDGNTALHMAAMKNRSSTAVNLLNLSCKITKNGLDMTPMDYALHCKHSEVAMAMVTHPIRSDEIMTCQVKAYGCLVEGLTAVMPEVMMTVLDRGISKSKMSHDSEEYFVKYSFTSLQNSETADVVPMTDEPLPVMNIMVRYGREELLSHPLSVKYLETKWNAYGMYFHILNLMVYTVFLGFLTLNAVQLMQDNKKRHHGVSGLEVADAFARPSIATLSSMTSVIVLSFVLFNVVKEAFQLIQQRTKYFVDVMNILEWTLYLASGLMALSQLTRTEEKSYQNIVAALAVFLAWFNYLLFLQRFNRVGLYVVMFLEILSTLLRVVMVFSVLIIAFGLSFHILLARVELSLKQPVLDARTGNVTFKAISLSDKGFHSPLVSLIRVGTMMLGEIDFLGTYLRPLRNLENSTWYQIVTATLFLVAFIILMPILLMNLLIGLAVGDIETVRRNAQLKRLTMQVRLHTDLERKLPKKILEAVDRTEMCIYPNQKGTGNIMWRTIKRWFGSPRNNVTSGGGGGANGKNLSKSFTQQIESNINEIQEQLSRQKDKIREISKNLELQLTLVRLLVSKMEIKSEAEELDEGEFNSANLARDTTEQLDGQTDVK
The assay is described as follows: Fura-2 calcium imaging, HEK293. The assay is classed as cell-based. Conditions: pH 7.4, 2 mM CaCl2.

Assay [2] has as its target T2, TmTRPA1a (Tropilaelaps mercedesae, UniProt A0A193PK31).
T2 construct: gene TRPA1; full-length, untagged, transiently expressed in HEK293 cells; expected 134 kD; 15 ankyrin repeats
T2 sequence (A0A193PK31 1-1172): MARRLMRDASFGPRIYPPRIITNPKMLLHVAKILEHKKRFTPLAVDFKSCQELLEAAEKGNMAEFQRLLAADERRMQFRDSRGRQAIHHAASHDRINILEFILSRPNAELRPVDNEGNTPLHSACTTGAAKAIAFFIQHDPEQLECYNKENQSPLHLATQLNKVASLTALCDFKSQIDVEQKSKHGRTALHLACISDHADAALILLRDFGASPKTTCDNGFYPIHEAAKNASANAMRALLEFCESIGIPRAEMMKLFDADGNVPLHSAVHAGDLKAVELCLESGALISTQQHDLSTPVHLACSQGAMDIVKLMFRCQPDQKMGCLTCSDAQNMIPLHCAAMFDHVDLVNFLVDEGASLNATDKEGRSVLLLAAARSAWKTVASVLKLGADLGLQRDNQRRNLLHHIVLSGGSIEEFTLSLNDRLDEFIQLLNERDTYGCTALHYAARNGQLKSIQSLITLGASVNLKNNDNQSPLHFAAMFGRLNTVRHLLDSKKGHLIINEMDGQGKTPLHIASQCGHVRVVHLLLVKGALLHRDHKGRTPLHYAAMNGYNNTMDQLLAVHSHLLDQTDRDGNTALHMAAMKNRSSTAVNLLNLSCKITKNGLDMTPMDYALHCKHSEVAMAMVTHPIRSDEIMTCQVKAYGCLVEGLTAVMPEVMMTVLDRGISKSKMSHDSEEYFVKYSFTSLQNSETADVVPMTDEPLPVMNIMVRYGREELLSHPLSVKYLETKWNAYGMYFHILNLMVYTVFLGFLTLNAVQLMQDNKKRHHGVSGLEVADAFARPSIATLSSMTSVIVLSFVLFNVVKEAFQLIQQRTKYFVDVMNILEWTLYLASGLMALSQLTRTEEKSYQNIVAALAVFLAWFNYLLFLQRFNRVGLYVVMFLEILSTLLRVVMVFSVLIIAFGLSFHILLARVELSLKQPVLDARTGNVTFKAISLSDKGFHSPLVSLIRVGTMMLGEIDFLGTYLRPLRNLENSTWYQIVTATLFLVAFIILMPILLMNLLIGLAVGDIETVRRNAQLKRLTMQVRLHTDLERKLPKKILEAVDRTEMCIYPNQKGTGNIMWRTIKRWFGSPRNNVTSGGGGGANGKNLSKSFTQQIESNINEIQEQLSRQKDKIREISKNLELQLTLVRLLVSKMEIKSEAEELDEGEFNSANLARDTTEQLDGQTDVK
As to the kind of experiment: Fura-2 calcium imaging, HEK293. The note with it: activator, pH 7.4, 2 mM CaCl2. The format is cell-based. An excerpt: Fura-2 calcium imaging, HEK293 on TmTRPA1a | only six of the compounds activated TmTRPA1a.

With `CC12CCC(CC1)C(C)(C)O2` [1,8-cineole], the “Fura-2 calcium imaging, HEK293” value in assay [1] (1 mM, activator) is on record as “We observed robust activation of TmTRPA1b by eight representative plant-derived compounds”.
Regarding `CCCCCCCCCC(C)=O` [2-undecanone], the “Fura-2 calcium imaging, HEK293” value was “only six of the compounds activated TmTRPA1a. These are nerol, 2-undecanone, carvacrol” in assay [2] (1 mM) and “We observed robust activation of TmTRPA1b by eight representative plant-derived compounds” in assay [1] (1 mM, activator).
Regarding `C=CCN=C=S` [allyl isothiocyanate], the “Fura-2 calcium imaging, HEK293” value in assay [1] (1 mM, electrophilic activator) is “allyl isothiocyanate (AITC), cinnamaldehyde (CA) and diallyl disulfide also activate TmTRPA1b”.
For the compound `Cc1ccc(C(C)C)cc1O` [carvacrol], the “Fura-2 calcium imaging, HEK293” value in assay [2] (0.5 mM) is on record as “only six of the compounds activated TmTRPA1a. These are nerol, 2-undecanone, carvacrol”; in assay [1] (0.5 mM, activator), “We observed robust activation of TmTRPA1b by eight representative plant-derived compounds”.
In the case of `O=CC=Cc1ccccc1` [cinnamaldehyde], the “Fura-2 calcium imaging, HEK293” value in assay [1] (1 mM, electrophilic activator) was “allyl isothiocyanate (AITC), cinnamaldehyde (CA) and diallyl disulfide also activate TmTRPA1b”.
Same read-out and setting: with `C=CCSSCC=C` [diallyl disulfide] the entry was “allyl isothiocyanate (AITC), cinnamaldehyde (CA) and diallyl disulfide also activate TmTRPA1b”.
Take `C=CCc1ccc(O)c(OC)c1` [eugenol]: in assay [2] (1 mM), the “Fura-2 calcium imaging, HEK293” value was “These are nerol, 2-undecanone, carvacrol, geranylacetone, eugenol and terpinen-4-ol”.
Turning to `CC(=O)CC/C=C(\C)CCC=C(C)C` [geranylacetone], the “Fura-2 calcium imaging, HEK293” value in assay [2] (0.5 mM) is “These are nerol, 2-undecanone, carvacrol, geranylacetone, eugenol and terpinen-4-ol”; in assay [1] (0.5 mM, activator), “We observed robust activation of TmTRPA1b by eight representative plant-derived compounds”.
As for `CC/C=C\C[C@H]1C(=O)CC[C@@H]1CC(=O)OC` [methyl jasmonate], the “Fura-2 calcium imaging, HEK293” value in assay [1] (1 mM, activator) was “We observed robust activation of TmTRPA1b by eight representative plant-derived compounds”.
For the compound `CC(C)=CCC/C(C)=C\CO` [nerol], the “Fura-2 calcium imaging, HEK293” value in assay [2] (1 mM (Figure 5 legend; Methods state 0.5 mM)) is “only six of the compounds activated TmTRPA1a. These are nerol, 2-undecanone, carvacrol”; in assay [1] (0.5 mM, activator), “We observed robust activation of TmTRPA1b by eight representative plant-derived compounds”.
On to `CC1=CCC(O)(C(C)C)CC1` (centres unmarked) [terpinen-4-ol], for which the “Fura-2 calcium imaging, HEK293” value in assay [2] (1 mM) is “These are nerol, 2-undecanone, carvacrol, geranylacetone, eugenol and terpinen-4-ol”.
`CC1=CCC(C(C)(C)O)CC1` (stereo not drawn) [α-terpineol]: the “Fura-2 calcium imaging, HEK293” value in assay [1] (1 mM, activator) was “We observed robust activation of TmTRPA1b by eight representative plant-derived compounds”.
Turning to `CC(C)=CCCC(C)CCO` (stereo not drawn) [β-citronellol], in assay [1] (1 mM, activator), the “Fura-2 calcium imaging, HEK293” value is “We observed robust activation of TmTRPA1b by eight representative plant-derived compounds”.
